Measured values published in patent US8247594B2, “Insecticidal compounds” (Syngenta Crop Protection LLC, priority 2007, dated 2012).

Experiments:
Tetranychus urticae = Tetranychus urticae (two-spotted spider mite) leaf disc spray test; assay type: in vivo; conditions: application rate 200 ppm, sprayed bean leaf discs, mixed ages, 8 days; egg, larval and adult mortality
Description: Tetranychus Urticae (Two-Spotted Spider Mite): Bean leaf discs on agar in 24-well microtiter plates were sprayed with test solutions at an application rate of 200 ppm. After drying, the leaf discs are infested with mite populations of mixed ages. 8 days later, discs are checked for egg mortality, larval mortality, and adult mortality.

Myzus persicae = Myzus persicae (green peach aphid) leaf disc spray test; assay type: in vivo; conditions: application rate 200 ppm, sprayed sunflower leaf discs, mixed ages, 6 DAT; mortality
Method: Myzus Persicae (Green Peach Aphid): Sunflower leaf discs were placed on agar in a 24-well microtiter plate and sprayed with test solutions at an application rate of 200 ppm. After drying, the leaf discs were infested with an aphid population of mixed ages. After an incubation period of 6 DAT, samples were checked for mortality.

SMILES	control of Tetranychus urticae (Tetranychus urticae)	control of Myzus persicae (Myzus persicae)
N#Cc1ccc(C(=O)Nc2c(Br)cc(C(F)(C(F)(F)F)C(F)(F)F)cc2Br)cc1NC(=O)OCC(Cl)(Cl)Cl [A11]	at least 80%	
CCc1cc(C(F)(C(F)(F)F)C(F)(F)C(F)(F)F)cc(CC)c1NC(=O)c1ccc(C#N)c(NC(=O)OCC(Cl)(Cl)Cl)c1 (centres unmarked) [A12]		at least 80%
